# Experimental data from patent US20110293658A1, “USE OF INKT OR TLR AGONISTS FOR PROTECTING AGAINST OR TREATING A DISEASE SUCH AS ACUTE INFECTION OR CANCER” (LUDWIG INSTITUTE FOR CANCER RESEARCH LTD., priority 2008, published 2011).
# Experiments:
# [1] = tested on: human GM-CSF treated MDSC; experiment: Mixed lymphocyte reaction with healthy donors' GM-CSF treated MDSC; assay type: cell-based; details: for T cell proliferation in MLR with TLR-L treated MDSC: LPS 10 μg/ml, R848 5 μg/ml, Poly I:C 10 μg/ml, 24 h co-culture with added human iNKT cells, DC:MDSC 1:1
# [2] = tested on: BM derived MDSC; experiment: OT-I proliferation assay with BM derived MDSC; assay type: cell-based, mouse; details: for MDSC suppressive activity on CFSE labelled OT-I proliferation: MDSC incubated 48 h with TLR agonist, in the absence of iNKT cells
# [3] = tested on: CD11bCD15 positive cells; experiment: Melan-A priming experiments with CD11bCD15 positive cells from melanoma patients; assay type: cell-based, human; details: CD11bCD15 positive cells pulsed with alphaGalCer 100 ng or Threitolceramide 200 ng
# Procedure: CD11bCD15 positive cells were pulsed with either alphaGalCer (100 ng) or Threitolceramide (200 ng) for 2 hours and then incubated with autologous iNKT cells overnight before adding autologous DC pulsed with Melan-A26-35 peptide and autologous CD11bCD15 cell depleted total leukocytes.
# Experiments in FIG. 29 were carried out using the same conditions as shown in the right column of FIG. 28 (i.e. in the presence of iNKT cells and alphaGalCer pulsed CD11bCD15 positive cells) in the presence of either blocking anti CD1d (middle column) or blocking anti CD40 (right column) antibodies.
# In order to assess whether secretion of IL-10 is contributing to the suppressive activity of CD11bCD15 positive cells, expansion of Melan-A26-35 specific T cell responses as assessed in the presence or absence of blocking anti 11-10 receptor antibodies. In the left hand panel of FIG. 31, expansion of Melan-A26-35 specific T cells was assessed using total leukocytes from which CD11b-CD15+ cells were removed (2.33%). Addition of CD11bCD15 positive cells reduced the frequency of Melan-A26-35 specific T cells (0.83%) (central panel).
# Purification of CD11b/CD15+ cells. Since CD15 CD11b positive cells have granulocyte density, it is important to purify them without using density gradients, such as Ficol. Red blood cells are lysed from whole blood, using red lysis cell buffer and anti CD11b/CD15 specific antibodies are added to the leukocytes for FACS guided cell sorting.
# Melan-A priming experiments. DCs were generated by culturing monocytes for 4 days in RPMI/10% FCS supplemented with 50 ng/ml GM-CSF (Pepro-tech) and 1,000 U/ml IL-4 (Salio, M., et al. 2007. Proc. Natl. Acad. Sci. U.S.A. 104:20490-20495). […] After 2 weeks, cells were stained with HLA-A2 tetramers loaded with melan-A26-35 peptide and anti CD8.
# Harnessing iNKT cells. The protocol to purify Cdl lbCd15 cells and differentiate DC is similar to the protocol described earlier. Cdl lbCd15 cells were pulsed with either alphaGalCer (100 ng) or with threitolceramide (200 ng) and then incubated with iNKT cells for 12 hours. Cells were then washed pulsed with the melan-A26-35 peptide and incubated with total leukocytes. After 2 weeks in culture, cells were stained with HLA-A2 melan-A tetramers and anti-CD8 antibodies.
# [4] = tested on: EG7 cells (EL4 tumor cell line transfected with ovalbumin cDNA); parameters: species or system C57 BL/6 mice; details: mouse, in vivo, iv
# [5] = tested on: lung derived MDSC (CD11b+ Gr-1+ cells) from PR8 infected mice; assay type: cell-based, mouse
# [6] = tested on: CD11b+ cells from IAV infected individuals; assay type: cell-based, human; details: L-NMMA and NOHA added together to alloreactive PBL; data not shown
# [7] = tested on: iNKT cells; experiment: IFN-γ and IL-4 release from iNKT cells incubated with treated MDSC; assay type: cell-based, mouse; details: WT MDSC treated with TLR agonist, iNKT cells incubated 48 h
# Procedure: (B) IFN-γ and IL-4 release from iNKT cells incubated for 48 h with CpG or Poly I:C treated MDSC, in the presence or absence of anti CD1d blocking antibody. Data represent the average of 3 replicates ±S.D and are representative of 3 separate experiments.
# (A) iNKT cells derived from WT mice fail to produce IFN-γ when incubated with TLR-L matured MDSC derived from hexβ^−/− mice. Analysis of IFN-γ secretion by iNKT cells, derived from WT mice, co-incubated with TLR-L treated MDSC derived from either hexβ^−/− or iGb3S^−/− mice. To assess the role of CD1d molecules expressed on the surface of MDSC, TLR-L treated MDSC were also incubated with blocking […].
# Isolation and culture of mouse MDSC. […]
# Isolation of mouse iNKT cells. […] The % of iNKT cells was measured by CD1d/α-GalCer tetramer staining and ranged from ˜14% to ˜60%. […]
# ELISA: 1) Cytokines. […] The amount of IL-12p40, IFN-γ and IL4 was measured using an ELISA kit (eBioscience). […] Sera from PR8 infected mice were collected 6 days post infection and antibody titers were determined by coating 96-well maxisorb NUNC plates with 5 ng/ml of PR8 virus overnight at 4° C. […] Color reactions were developed with 3,3′,5-5′-Tetramethylbenzidine (TMB) (Sigma-Aldrich) and the absorbance was measured at 490 nm.
compound,measurement,setting,value
CCOCc1nc2c(N)nc3ccccc3c2n1CC(C)(C)O [R848],T cell proliferation in MLR with TLR-L treated MDSC,[1],rescues T cell proliferation
same,MDSC suppressive activity on CFSE labelled OT-I proliferation,[2],partially relieved
"CCCCN1C[C@H](O)[C@@H](O)[C@@H](O)[C@H]1CO [NB-DGJ, N-butyldeoxygalactonojirimycin]",ability of iNKT cells to relieve the suppressive activity of MDSC (CFSE labelled OT-I proliferation),"[2]; CpG and poly I:C treated MDSC, increasing concentrations of NB-DGJ, incubated with iNKT cells 24 h",reduced the ability of iNKT cells to relieve the suppressive activity of MDSC
same,OT-I proliferation in absence of MDSC,"[2]; NB-DGJ added to OT-I splenocytes, no MDSC, data not shown",did not affect OT-I proliferation
CCCCCCCCCCCCCCCCCCCCCCCCCC(=O)N[C@@H](COC[C@H](O)[C@@H](O)CO)[C@H](O)[C@H](O)CCCCCCCCCCCCCC [threitolceramide],frequency of Melan-A26-35 specific T cells,"[3]; in the absence of added iNKT cells, unpulsed 0.34%",0.29%
same,frequency of Melan-A26-35 specific T cells,[3]; with addition of autologous iNKT cells,2.87%
same,frequency of MDSCs (CD11b+Gr1+ positive cells),[4],lower frequency
same,frequency of Ova specific T cell responses (H-2Kb tetramer staining),[4],higher frequency
same,tumor size / tumor regression,[4],Tumour regression
"CNC(=N)NCCC[C@H](N)C(=O)O [L-NMMA, N^G-monomethyl-L-arginine]",MLR suppressive activity of healthy donors GM-CSF treated MDSC,[1]; NOHA and L-NMMA added together,can be blocked
same,PBL proliferation in MLR in the absence of MDSC,"[1]; NOHA and L-NMMA added together, no MDSC, data not shown",does not affect PBL proliferation
same,OT-I proliferation in the absence of MDSC,"[5]; L-NMMA and NOHA added together to OT-I splenocytes, no MDSC, data not shown",did not affect OT-I proliferation
same,suppressive activity of MDSC from PR8 infected mice on CFSE labelled OT-I proliferation,"[5]; […], L-NMMA and NOHA used together (500 μM)",is reduced
same,T cell proliferation in the absence of CD11b+ cells,[6],did not affect T cell proliferation
poly I:C,T cell proliferation in MLR with TLR-L treated MDSC,[1],rescues T cell proliferation
same,MDSC suppressive activity on CFSE labelled OT-I proliferation,[2],partially relieved
same,activation of iNKT cells by treated MDSC (IFNγ and IL-4 secretion),[7],capable of activating iNKT cells
